# Experimental data reported in paper PMC7614687, “Modulation of the substrate specificity of the kinase PDK1 by distinct conformations of the full-length protein*” (Science signaling, 2023).
# Columns and labels:
# [1] = target: T1, PDK1_50-359 (Homo sapiens, UniProt O15530); assay: Differential scanning fluorimetry, thermal stability of PDK1_50-359 (catalytic domain); format: binding
# T1 construct: His (N); made in house; host or cells: insect cells (stated for the crystallography batch)
# T1 sequence (O15530 50-359): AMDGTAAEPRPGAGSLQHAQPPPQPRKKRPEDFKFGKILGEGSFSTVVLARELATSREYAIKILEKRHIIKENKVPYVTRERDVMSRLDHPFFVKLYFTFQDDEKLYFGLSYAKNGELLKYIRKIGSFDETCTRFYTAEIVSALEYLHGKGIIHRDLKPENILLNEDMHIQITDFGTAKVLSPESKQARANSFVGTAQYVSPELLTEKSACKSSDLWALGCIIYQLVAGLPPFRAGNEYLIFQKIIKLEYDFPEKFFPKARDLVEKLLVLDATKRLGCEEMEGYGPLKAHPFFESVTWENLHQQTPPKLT
# Procedure: The thermal stability of PDK1 was assessed by monitoring the unfolding of PDK1 by the increase in the fluorescence of SYPRO Orange (Invitrogen) using a real-time PCR device (StepOnePlus, Applied Biosystems and BioRad CFX96) following a previously described protocol ([70]). The reactions were performed in a final volume of 10 μl in white 96-well PCR microtiter plates (Greiner) and contained 1 μM PDK1, 10 mM HEPES (pH 7.5), 150 mM NaCl, 1/1000 SYPRO Orange and 1 mM dithiothreitol. For valsartan, the assay buffer was modified to exclude NaCl. PIFtide or compounds (at a final DMSO concentration of 1%) were added to this reaction mixture. The temperature gradient was performed in steps of 0.3 °C in the range from 25 to 70 °C. To calculate the Tm values, data were exported to GraphPad Prism and curves fitted to a Boltzmann sigmoidal equation with an acceptable confidence interval of 95%. Statistical analysis was performed with Infostat software (http://www.infostat.com.ar) and GraphPad Prism by first verifying a normal distribution of pooled residuals (Shapiro-Wilks test) and homogeneity of variance (F test), and then performing a one-way ANOVA followed by the post hoc comparisons test indicated in each figure legend.
# [2] = target: T2, full-length PDK1 (GST-PDK1_1-556) (Homo sapiens, UniProt O15530); assay: Lipid overlay assay, di-C18-PIP3, full-length PDK1; format: binding
# T2 construct: made in house; host or cells: HEK293 cells (transient transfection of pEBG2T)
# T2 sequence (O15530 1-556): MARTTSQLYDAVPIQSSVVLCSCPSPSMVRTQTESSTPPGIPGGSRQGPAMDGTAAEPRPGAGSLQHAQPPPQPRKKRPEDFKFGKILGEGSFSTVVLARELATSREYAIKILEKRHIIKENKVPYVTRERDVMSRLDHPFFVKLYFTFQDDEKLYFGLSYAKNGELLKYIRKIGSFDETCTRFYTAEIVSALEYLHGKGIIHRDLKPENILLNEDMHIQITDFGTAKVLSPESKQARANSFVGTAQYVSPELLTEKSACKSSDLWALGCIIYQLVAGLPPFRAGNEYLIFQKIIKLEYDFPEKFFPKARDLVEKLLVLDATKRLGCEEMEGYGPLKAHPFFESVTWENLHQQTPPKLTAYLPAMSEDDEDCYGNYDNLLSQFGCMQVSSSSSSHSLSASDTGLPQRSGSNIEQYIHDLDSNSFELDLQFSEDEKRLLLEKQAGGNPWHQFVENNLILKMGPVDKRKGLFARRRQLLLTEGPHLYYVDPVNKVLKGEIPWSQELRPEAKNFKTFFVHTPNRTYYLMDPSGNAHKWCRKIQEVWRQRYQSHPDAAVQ
# Procedure: Dots containing 2-1000 picomoles of di-C18-PIP3 ([70]) were prepared by spotting 1 μL of serial dilution stock solutions (2-1000 μM dissolved in a 1:2:0.8 by volume mixture of chloroform/methanol/water) onto Hybond-C extra membrane (GE Healthcare), which were dried at room temperature. Membranes were incubated with blocking buffer (50 mm Tris-HCl buffer pH 7.5, 2 mg/ml fatty acid free bovine serum albumin, 150 mM NaCl, and 0.1% (v/v) Tween 20) for 1 h at room temperature. Membranes were then incubated with 10 nM protein/10 μM inhibitor mixes in blocking buffer with gentle rocking overnight at 4 °C. Membranes were washed 10 times over 1 h at room temperature using TBST buffer (50 mM Tris-HCl pH 7.5, 150 mM NaCl, 0.1% (v/v) Tween 20) before being incubated for 1 h with 1:2000 dilution of rabbit recombinant anti-PDK1 monoclonal antibody (New England Biolabs). Membranes were washed and incubated with 1:2000 dilution of anti-rabbit HRP conjugated antibody (Invitrogen/Thermo Fisher) for 1 h at room temperature. Finally, after washing, proteins bound to the membranes were detected using Novex ECL chemiluminescent reagent (Invitrogen/Thermo Fisher) and developed on X-ray film.
effect on thermal stability of PDK1_50-359 (catalytic domain) [1],displacement of the interaction between PIP3 and full-length PDK1_1-556 [2],SMILES
without affecting,,"O=C(O[C@H]1[C@@H](OP(=O)(O)O)[C@H](OP(=O)(O)O)[C@@H](OP(=O)(O)O)[C@H](OP(=O)(O)O)[C@H]1OP(=O)(O)O)c1ccccc1 [HYG8, 2-O-benzoyl-IP5]"
,much more potent,"CCCCO[C@H]1[C@@H](OP(=O)(O)O)[C@H](OP(=O)(O)O)[C@@H](OP(=O)(O)O)[C@H](OP(=O)(O)O)[C@H]1OP(=O)(O)O [HYG14, 2-O-butyl-IP5]"
